# Experimental data reported in patent US20240262842A1, “SMALL MOLECULE INHIBITORS OF KRAS G12C MUTANT” (Merck Sharp & Dohme LLC, priority 2021, published 2024).
# Where two headings read alike, the source gives them in different places.
# Tests used:
# [1] = biological target: T1, interaction between GMPPNP-bound recombinant K-Ras4B G12C mutant protein and cRAF RAS-binding domain (cRAF-RBD) (Homo sapiens, UniProt P01116, G12C); experiment: Inhibitory activity on interaction between KRAS G12C and cRAF (Alpha technology); details: Table 2-1
# T1 construct: His-tag (N)
# T1 sequence (P01116 with tags, fused parts or gaps isoform P01116-2 G12C): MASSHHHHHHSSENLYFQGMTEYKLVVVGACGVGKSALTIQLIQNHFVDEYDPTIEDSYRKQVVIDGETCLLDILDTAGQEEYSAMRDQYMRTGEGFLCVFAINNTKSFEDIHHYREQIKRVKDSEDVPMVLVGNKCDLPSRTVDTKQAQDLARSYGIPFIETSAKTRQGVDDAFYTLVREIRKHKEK
# Summary of the method: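 Alpha signal measured 1.5 h after adding cRAF-RBD (aa 50-132) and detection reagents to GMPPNP-bound KRAS G12C (aa 1-169) pretreated 1 h at 25° C with compound (pH 7.5 buffer). 0% inhibition = DMSO, 100% = GDP-loaded KRAS; IC50 by curve fit.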
# [2] = tested on: MIA PaCa-2 cells; experiment: Growth inhibition activity on KRAS-G12C mutant cell line (CellTiter-Glo 3D); format: cell-based, human; details: MIA PaCa-2, 3-day culture with compound, Table 3-1
# Summary of the method: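 IC50 (nM) derived from inhibition of luminescence (CellTiter-Glo 3D) relative to compound-free wells. Cells were seeded in U-bottom plates, grown 1 day, then exposed to compound for 3 days at 37 °C with 0.2% final DMSO.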
# [3] = IC50, GMPPNP-bound KRAS G12C incubated with compound 25° C. 1 hour
# [4] = GMPPNP-bound KRAS G12C incubated with compound 25° C. 1 hour, read-out: IC50
SMILES,"IC50 [1, 3] [nM]","IC50 ([2]; Homo sapiens, MIA PaCa-2, 72 h) [nM]","IC50 [1, 4] [nM]",IC50 [2] [nM]
"Cc1cc2c(nc(C)n2C)c2c1-c1cccc3c(C(=O)c4cc(F)c(NC(=O)/C=C/CN5CCC[C@H]5CO)c(F)c4)cn(c13)CCN2C [Example 114, (S,E)-N-(2,6-difluoro-4-(6,8,9,11-tetramethyl-8,11,12,13-tetrahydro-imidazo[4″,5″:5′,6′]benzo-[1′,2′:5,6][1,4]diazocino-[7,8,1-hi]indole-2-carbon-yl)phenyl)-4-(2-(hydroxy-methyl)pyrrolidin-1-yl)-but-2-enamide]",61.1,64.5,,
"Cc1cc2c(ncn2C)c2c1-c1cccn3c(C(=O)c4cc(F)c(NC(=O)/C=C/CNC5(C)CC5)c(F)c4)cc(c13)CCN2C [Example 115, (E)-N-(2,6-difluoro-4-(7,9,12-trimethyl-9,12,13,14-tetrahydro-imidazo[4″,5″:5′,6′]benzo-[1′,2′:2,3]azocino[4,5,6-hi]indolizine-2-carbon-yl)phenyl)-4-((1-methyl-cyclopropyl)amino)but-2-enamide]",,61.3,38.9,
Cc1cc2c(ncn2C)c2c1-c1cccn3c(C(=O)c4cc(F)c(NC(=O)/C=C/CNC5(C)CCOCC5)c(F)c4)cc(c13)CCN2C [Example 116],,29.9,26.6,
"COCc1nc2c3c(c(C(F)(F)F)cc2n1C)-c1cccn2c(C(=O)c4cc(F)c(NC(=O)/C=C/CN[C@H]5CCOC5)c(F)c4)cc(c12)CCO3 [Example 118, (S,E)-N-(2,6-difluoro-4-(10-(methoxymethyl)-9-methyl-7-(trifluorometh-yl)-13,14-dihydro-9H-imidazo[4″,5″:5′,6′]benzo-[1′,2′:2,3]oxocino[4,5,6-hi]indolizine-2-carbonyl)-phenyl)-4-((tetrahydro-furan-3-yl)amino)but-2-enamide]",,4.2,12.6,
"Cc1cc2c(nc(C)n2C)c2c1-c1cccc3c(C(=O)c4cc(F)c(NC(=O)/C=C/CNC56CCC(CC5)OC6)c(F)c4)cn(c13)CCN2C [Example 119, (E)-4-((2-oxabicyclo-[2.2.2]octan-4-yl)amino)-N-(2,6-difluoro-4-(6,8,9,11-tetramethyl-8,11,12,13-tetrahydro-imidazo[4″,5″:5′,6′]benzo-[1′,2′:5,6][1,4]diazocino-[7,8,1-hi]indole-2-carbon-yl)phenyl)but-2-enamide]",16.9,,,9.39
"Cn1cnc2c3c(c(C(F)(F)F)cc21)-c1cccn2c(C(=O)c4cc(F)c(NC(=O)C=CCNC5CCOC5)c(F)c4)cc(c12)CCO3 [Example 120, (S,E)-N-(2,6-difluoro-4-(9-methyl-7-(trifluoromethyl)-13,14-dihydro-9H-imidazo[4″,5″:5′,6′]benzo[1′,2′:2,3]oxocino[4,5,6-bi]indolizine-2-carbonyl)phenyl)-4-((tetrahydrofuran-3-yl)amino)but-2-enamide]",,6.52,5.59,
COc1cc2c(nc(C)n2C)c2c1-c1cccn3c(C(=O)c4cc(F)c(NC(=O)/C=C/CNC56CCC(CC5)OC6)c(F)c4)cc(c13)CCN2C [Example 121],,26.4,23,
"Cc1cc2c(nc(C)n2C)c2c1-c1cccc3c(C(=O)c4cc(F)c(NC(=O)/C=C/CN5CCC[C@H]5C(C)(C)O)c(F)c4)cn(c13)CCN2C [Example 122, (S,E)-N-(2,6-difluoro-4-(6,8,9,11-tetramethyl-8,11,12,13-tetrahydro-imidazo[4″,5″:5′,6′]benzo-[1′,2′:5,6][1,4]diazocino-[7,8,1-hi]indole-2-carbon-yl)phenyl)-4-(2-(2-hydroxypropan-2-yl)-pyrrolidin-1-yl)but-2-enamide]",54.1,88.2,,
"Cc1cc2c(nc(C)n2C)c2c1-c1cccc3c(C(=O)c4cc(F)c(NC(=O)/C=C/CNC5CCOC5(C)C)c(F)c4)cn(c13)CCN2C (centres unmarked) [Example 123, (E)-N-(2,6-difluoro-4-(6,8,9,11-tetramethyl-8,11,12,13-tetrahydro-imidazo[4″,5″:5′,6′]benzo-[1′,2′:5,6][1,4]diazocino-[7,8,1-hi]indole-2-carbon-yl)phenyl)-4-((2,2-dimeth-yltetrahydrofuran-3-yl)-amino)but-2-enamide]",41.8,35,,
"Cc1cc2c(nc(C)n2C)c2c1-c1cccc3c(C(=O)c4cc(F)c(NC(=O)/C=C/CNC5COC(C)(C)C5)c(F)c4)cn(c13)CCN2C (centres unmarked) [Example 124, (E)-N-(2,6-difluoro-4-(6,8,9,11-tetramethyl-8,11,12,13-tetrahydro-imidazo[4″,5″:5′,6′]benzo-[1′,2′:5,6][1,4]diazocino-[7,8,1-hi]indole-2-carbon-yl)phenyl)-4-((5,5-dimeth-yltetrabydrofuran-3-yl)-amino)but-2-enamide]",13,13.7,,
Cn1cnc2c3c(c(C(F)(F)F)cc21)-c1cccn2c(C(=O)c4cc(F)c(NC(=O)/C=C/CNC56CCC(CC5)OC6)c(F)c4)cc(c12)CCO3 [Example 125],,9.06,3.75,
"COCCNC/C=C/C(=O)Nc1c(F)cc(C(=O)c2cc3c4c(cccn24)-c2c(C(F)(F)F)cc4c(ncn4C)c2N(C)CC3)cc1F [Example 126, (E)-N-(4-(9,12-dimethyl-7-(trifluoromethyl)-9,12,13,14-tetrahydro-imidazo[4″,5″:5′,6′]benzo-[1′,2′:2,3]azocino[4,5,6-hi]indolizine-2-carbonyl)-2,6-difluorophenyl)-4-((2-methoxyethyl)amino)but-2-enamide]",,14.3,18,
"COCC1(NC/C=C/C(=O)Nc2c(F)cc(C(=O)c3cc4c5c(cccn35)-c3c(C(F)(F)F)cc5c(ncn5C)c3N(C)CC4)cc2F)CCCC1 [Example 127, (E)-N-(4-(9,12-dimethyl-7-(trifluoromethyl)-9,12,13,14-tetrahydro-imidazo[4″,5″:5′,6′]benzo-[1′,2′:2,3]azocino[4,5,6-hi]indolizine-2-carbonyl)-2,6-difluorophenyl)-4-((1-(methoxymethyl)cyclo-pentyl)amino)but-2-en-amide]",,22.5,16.8,
"COC[C@H](CO)NC/C=C/C(=O)Nc1c(F)cc(C(=O)c2cc3c4c(cccn24)-c2c(C(F)(F)F)cc4c(ncn4C)c2N(C)CC3)cc1F [Example 128, (S,E)-N-(4-(9,12-dimeth-yl-7-(trifluoromethyl)-9,12,13,14-tetrahydro-imidazo[4″,5″:5′,6′]benzo-[1′,2′:2,3]azocino[4,5,6-hi]indolizine-2-carbonyl)-2,6-difluorophenyl)-4-((1-hydroxy-3-methoxy-propan-2-yl)amino)but-2-enamide]",,11.8,18.8,
"CC1Cc2cc(C(=O)c3cc(F)c(NC(=O)/C=C/CNC4(C)COC4)c(F)c3)n3cccc(c23)-c2c(C(F)(F)F)cc3c(ncn3C)c2O1 (centres unmarked) [Example 130, (E)-N-(4-(9,13-dimethyl-7-(trifluoromethyl)-13,14-dihydro-9H-imidazo[4″,5″:5′,6′]benzo[1′,2′:2,3]oxocino[4,5,6-hi]indolizine-2-carbonyl)-2,6-difluorophenyl)-4-((3-methyloxetan-3-yl)amino)but-2-enamide]",,82.8,41.4,
"Cc1cc2c(nc(C)n2C)c2c1-c1cccc3c(C(=O)c4cc(F)c(NC(=O)/C=C/CN5CC[C@H]5CO)c(F)c4)cn(c13)CCN2C [Example 132, (S,E)-N-(2,6-difluoro-4-(6,8,9,11-tetramethyl-8,11,12,13-tetrahydro-imidazo[4″,5″:5′,6′]-benzo[1′,2′:5,6][1,4]-diazocino[7,8,1-hi]indole-2-carbonyl)phenyl)-4-(2-(hydroxymethyl)azetidin-1-yl)but-2-enamide]",10.8,16.7,,
COc1cc2c(nc(C)n2C)c2c1-c1cccn3c(C(=O)c4cc(F)c(NC(=O)/C=C/CN[C@@H]5CCCOC5)c(F)c4)cc(c13)CCN2C [Example 133],,6.45,11.4,
Cc1cc2c(ncn2C)c2c1-c1cccn3c(C(=O)c4cc(F)c(NC(=O)/C=C/CNC56CCC(CC5)OC6)c(F)c4)cc(c13)CCN2C [Example 134],,244,31,
Cc1cc2c(nc(C)n2C)c2c1-c1cccc3c(C(=O)c4cc(F)c(NC(=O)/C=C/CN[C@H]5C[C@H]6CC[C@@H]5O6)c(F)c4)cn(c13)CCN2C [Example 136],26.4,36.1,,
Cc1nc2c3c(c(C(F)(F)F)cc2n1C)-c1cccn2c(C(=O)c4cc(F)c(NC(=O)/C=C/CN[C@@H]5COC[C@H]5O)c(F)c4)cc(c12)CCN3C [Example 137],,14.9,33.5,
"CN1CCc2cc(C(=O)c3cc(F)c(NC(=O)C=CCNC4COCC4O)c(F)c3)n3cccc(c23)-c2c(C(F)(F)F)cc3c(ncn3C)c21 [Example 138, (E)-N-(4-(9,12-dimethyl-7-(trifluoromethyl)-9,12,13,14-tetrahydro-imidazo[4″,5″:5′,6′]benzo-[1′,2′:2,3]azocino[4,5,6-hi]indolizine-2-carbonyl)-2,6-difluorophenyl)-4-(((3R,4S)-4-hydroxytetra-hydrofuran-3-yl)amino)-but-2-enamide]",,30.8,47.2,
"Cc1cc2c(nc(C)n2C)c2c1-c1cccc3c(C(=O)c4cc(F)c(NC(=O)/C=C/CN5CC[C@H]5C(C)(C)O)c(F)c4)cn(c13)CCN2C [Example 139, (S,E)-N-(2,6-difluoro-4-(6,8,9,11-tetramethyl-8,11,12,13-tetrahydro-imidazo[4″,5″:5′,6′]benzo-[1′,2′:5,6][1,4]diazocino-[7,8,1-hi]indole-2-carbon-yl)phenyl)-4-(2-(2-hydroxypropan-2-yl)-azetidin-1-yl)but-2-en-amide]",59,57.9,,
